Experimental findings from US9079895B2, “Morpholino compounds, uses and methods” (University of Dundee, priority 2012, dated 2015) are described below.

As usually defined, the Ki is a measure of affinity in units of concentration, obtained from inhibition or displacement.

One experiment has as its target 5HT1a receptor (Homo sapiens (Human), UniProt P08908). Briefly: Secondary radioligand binding assay, 5HT1a. Conditions: average of at least two experiments.
The target in another experiment is 5HT1d receptor (Homo sapiens (Human), UniProt P28221). The experiment in a line: Secondary radioligand binding assay, 5HT1d.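 Also: competition binding against a radioligand on membranes from transfected cell lines, 1.5 h at room temperature, filter-retained radioactivity counted by liquid scintillation, total binding plotted versus log competitor concentration.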 More on the design: key to Ki 5HT1d: “—” indicates that a binding interaction was not detected. The conditions noted are these: average of at least two experiments.
Sequence of 5HT1d receptor (P28221 whole entry): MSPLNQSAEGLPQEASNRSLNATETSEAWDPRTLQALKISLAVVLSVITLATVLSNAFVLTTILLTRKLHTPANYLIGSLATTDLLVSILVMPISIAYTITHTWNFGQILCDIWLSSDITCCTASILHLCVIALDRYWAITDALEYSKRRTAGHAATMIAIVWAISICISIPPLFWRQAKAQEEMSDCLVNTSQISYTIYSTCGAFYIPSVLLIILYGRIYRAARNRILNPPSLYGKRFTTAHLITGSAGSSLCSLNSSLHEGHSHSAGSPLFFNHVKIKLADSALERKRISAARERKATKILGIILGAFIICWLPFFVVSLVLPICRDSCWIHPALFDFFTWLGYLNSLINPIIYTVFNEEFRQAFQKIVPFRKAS
Another experiment deals with 5HT2a receptor (Homo sapiens (Human), UniProt P28223). The experiment in a line: Secondary radioligand binding assay, 5HT2a. The conditions noted are these: average of at least two experiments.
Sequence of 5HT2a receptor (P28223 whole entry): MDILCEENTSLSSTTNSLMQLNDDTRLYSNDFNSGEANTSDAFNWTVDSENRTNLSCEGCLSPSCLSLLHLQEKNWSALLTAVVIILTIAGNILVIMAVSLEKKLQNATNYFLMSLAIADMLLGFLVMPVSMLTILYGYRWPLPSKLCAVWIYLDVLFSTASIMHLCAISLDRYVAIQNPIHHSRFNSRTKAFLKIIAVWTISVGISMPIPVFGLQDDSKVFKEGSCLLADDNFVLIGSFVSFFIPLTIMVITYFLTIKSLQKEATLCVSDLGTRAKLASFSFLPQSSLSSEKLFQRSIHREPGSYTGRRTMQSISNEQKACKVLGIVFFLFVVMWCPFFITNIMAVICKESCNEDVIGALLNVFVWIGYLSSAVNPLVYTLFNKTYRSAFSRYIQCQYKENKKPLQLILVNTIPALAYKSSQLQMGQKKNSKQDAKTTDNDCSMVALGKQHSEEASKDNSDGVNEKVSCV
The target of the next experiment is 5HT7 receptor (Homo sapiens (Human), UniProt P34969). The experiment in a line: Secondary radioligand binding assay, 5HT7.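 Also: competition of test compound with radioligand for binding to membranes from transfected cell lines, 1.5 h incubation at room temperature, filter-bound radioactivity read by liquid scintillation.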 Further details: key to Ki 5HT7: “—” indicates that a binding interaction was not detected. Conditions: average of at least two experiments.
Sequence of 5HT7 receptor (P34969 whole entry): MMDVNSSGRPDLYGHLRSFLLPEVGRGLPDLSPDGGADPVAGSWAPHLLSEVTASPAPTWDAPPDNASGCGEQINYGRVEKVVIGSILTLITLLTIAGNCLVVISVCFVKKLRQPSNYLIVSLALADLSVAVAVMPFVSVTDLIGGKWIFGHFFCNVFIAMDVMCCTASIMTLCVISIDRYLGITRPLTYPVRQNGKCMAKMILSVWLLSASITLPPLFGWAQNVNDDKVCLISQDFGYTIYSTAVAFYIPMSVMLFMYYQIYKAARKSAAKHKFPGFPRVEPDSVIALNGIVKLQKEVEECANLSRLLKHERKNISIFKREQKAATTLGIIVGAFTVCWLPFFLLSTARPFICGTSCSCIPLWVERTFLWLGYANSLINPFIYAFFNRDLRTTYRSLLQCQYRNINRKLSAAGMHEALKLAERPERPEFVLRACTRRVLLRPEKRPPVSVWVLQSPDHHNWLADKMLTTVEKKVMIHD
Another experiment addresses dopamine D1 receptor (Homo sapiens (Human), UniProt P21728). The experiment in a line: Secondary radioligand binding assay, D1. Further details: key to Ki D1: “—” indicates that a binding interaction was not detected. Conditions: average of at least two experiments. The method, then: (§1) 1. Secondary Radioligand Binding Assays
(§2) The detailed experimental protocols for the radioligand and functional receptor assays are available on the NIMH PDSP website at http://pdsp.med.unc.edu/UNC-CH %20Protocol %20Book.pdf.
(§3) Radioligand is diluted to five times the assay concentration (see Table 18) in Standard Binding Buffer. Typically, the assay concentration of radioligand is a value between one half the KD and the KD of a particular radioligand at its target. 50 μl aliquots of radioligand are dispensed into the wells of a 96-well plate containing 100 μl of Standard Binding Buffer. Then, duplicate 50 μl aliquots of the test and reference compound dilutions are added.
(§4) The 250 μl reactions are incubated at room temperature and shielded from light (to prevent photolysis of light-sensitive ligands) for 1.5 hours, then harvested by rapid filtration onto Whatman GF/B glass fiber filters pre-soaked with 0.3% polyethyleneimine using a 96-well Brandel harverster. Four rapid 500 μl washes are performed with chilled Standard Binding Buffer to reduce non-specific binding. Filters are placed in 6 ml scintillation tubes and allowed to dry overnight. The next day, 4 ml of EcoScint scintillation cocktail (National Diagnostics) are added to each tube. The tubes are capped, labeled, and counted by liquid scintillation counting. […] The filter mats are dried, then scintillant is melted onto the filters and the radioactivity retained on the filters is counted in a Microbeta scintillation counter.
(§5) Raw data (dpm) representing total radioligand binding (i.e. specific+non-specific binding) are plotted as a function of the logarithm of the molar concentration of the competitor (i.e. test or reference compound).
(§6) B. Dopamine Receptors: D1, D2, D3, D4, D5 Assay Buffers: Dopamine Binding Buffer (50 mM NaCl, 50 mM HEPES-HCl, 5 mM MgCl2, 0.5 mM EDTA, pH 7.4) Membrane Fraction Source: Transiently or stably transfected cell lines (e.g. HEK293, COS, CHO, NIH3T3)
(§7) The method is carried out in the manner described for the serotonin receptor assay above. Eleven dilutions (5× assay concentration) of the test and reference (see Table 19) compounds are prepared in Dopamine Binding Buffer by serial dilution, as previously described. Radioligand is diluted to five times the assay concentration (see Table 20) in Dopamine Binding Buffer.

Experiment [1] concerns the target T1, dopamine D2 receptor (Homo sapiens (Human), UniProt P14416). Briefly: Secondary radioligand binding assay, D2. Further details: key to Ki D2: “—” indicates that a binding interaction was not detected. The conditions noted are these: average of at least two experiments. On the procedure: as §1, §2, §3, §4, §5, §6, §7
For a further experiment, the target named is dopamine D3 receptor (Homo sapiens (Human), UniProt P35462). The experiment in a line: Secondary radioligand binding assay, D3. More on the design: key to Ki D3: “—” indicates that a binding interaction was not detected. The conditions noted are these: average of at least two experiments. The method, then:
as §1, §2, §3, §4, §5, §6, §7

Experiment [2] has as its target T2, dopamine D4 receptor (Homo sapiens (Human), UniProt P21917). Briefly: Secondary radioligand binding assay, D4. The conditions noted are these: receptor binding; average of at least two experiments; read-out: Ki D4. An outline of the steps:
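Competition binding on membranes from transfected cell lines (e.g. HEK293, COS, CHO, NIH3T3) in 50 mM HEPES, 50 mM NaCl, 5 mM MgCl2, 0.5 mM EDTA, pH 7.4.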

For the next experiment, the target named is dopamine D5 receptor (Homo sapiens (Human), UniProt P21918). The experiment in a line: Secondary radioligand binding assay, D5. The conditions noted are these: average of at least two experiments. Further details: key to Ki D5: “—” indicates that a binding interaction was not detected. On the procedure: as §1, §2, §3, §4, §5, §6, §7
Sequence of dopamine D5 receptor (P21918 whole entry): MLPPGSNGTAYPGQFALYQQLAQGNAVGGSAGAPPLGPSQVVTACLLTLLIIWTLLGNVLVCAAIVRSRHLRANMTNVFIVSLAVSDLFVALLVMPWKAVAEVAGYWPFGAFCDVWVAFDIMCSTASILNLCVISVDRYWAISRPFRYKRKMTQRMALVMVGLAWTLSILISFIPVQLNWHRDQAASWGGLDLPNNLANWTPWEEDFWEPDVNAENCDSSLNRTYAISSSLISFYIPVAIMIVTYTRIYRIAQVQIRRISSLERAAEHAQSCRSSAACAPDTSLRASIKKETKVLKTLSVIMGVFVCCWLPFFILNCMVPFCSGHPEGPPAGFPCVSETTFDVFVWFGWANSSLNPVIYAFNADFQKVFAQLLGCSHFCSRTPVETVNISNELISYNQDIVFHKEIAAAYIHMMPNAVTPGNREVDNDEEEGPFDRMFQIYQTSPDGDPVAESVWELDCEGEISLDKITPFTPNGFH
The next experiment addresses hERG (Homo sapiens (Human), UniProt Q12809). The experiment in a line: hERG assay (PatchXpress patch clamp). Type of experiment: cell-based. Conditions: read-out: hERG inhibition pEC50 (converted). On the procedure: 2. hERG Assay hERG activity was assayed by the patch clamp method on a PatchXpress platform and by FluxOR T1+ assays.
In general terms: Block of hERG is tested as a sign of cardiac risk.

Experiment [3] addresses T1, dopamine D2 receptor. Briefly: Functional assay against the dopamine D2 receptor. Type of experiment: cell-based. The conditions noted are these: data not shown.
From the text: as §2

In experiment [4] the target is T2, dopamine D4 receptor. Briefly: Functional assay against the dopamine D4 receptor. Conditions: data not shown. Type of experiment: cell-based.
From the text: as §2

In a further experiment the target is 5HT1b receptor (Homo sapiens (Human), UniProt P28222). The experiment in a line: Secondary radioligand binding assay, 5HT1b. Conditions: average of at least two experiments.
Sequence of 5HT1b receptor (P28222 whole entry): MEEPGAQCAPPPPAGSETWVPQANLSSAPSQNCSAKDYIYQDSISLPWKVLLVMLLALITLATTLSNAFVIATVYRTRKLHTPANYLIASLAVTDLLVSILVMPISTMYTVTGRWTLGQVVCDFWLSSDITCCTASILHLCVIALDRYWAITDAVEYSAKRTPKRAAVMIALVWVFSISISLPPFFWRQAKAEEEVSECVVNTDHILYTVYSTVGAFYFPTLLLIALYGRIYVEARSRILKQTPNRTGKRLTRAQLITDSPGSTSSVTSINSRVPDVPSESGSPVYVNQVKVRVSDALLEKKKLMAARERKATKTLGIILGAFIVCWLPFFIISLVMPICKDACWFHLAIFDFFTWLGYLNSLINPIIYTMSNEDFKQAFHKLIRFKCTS

T1 sequence (P14416 whole entry, species assumed): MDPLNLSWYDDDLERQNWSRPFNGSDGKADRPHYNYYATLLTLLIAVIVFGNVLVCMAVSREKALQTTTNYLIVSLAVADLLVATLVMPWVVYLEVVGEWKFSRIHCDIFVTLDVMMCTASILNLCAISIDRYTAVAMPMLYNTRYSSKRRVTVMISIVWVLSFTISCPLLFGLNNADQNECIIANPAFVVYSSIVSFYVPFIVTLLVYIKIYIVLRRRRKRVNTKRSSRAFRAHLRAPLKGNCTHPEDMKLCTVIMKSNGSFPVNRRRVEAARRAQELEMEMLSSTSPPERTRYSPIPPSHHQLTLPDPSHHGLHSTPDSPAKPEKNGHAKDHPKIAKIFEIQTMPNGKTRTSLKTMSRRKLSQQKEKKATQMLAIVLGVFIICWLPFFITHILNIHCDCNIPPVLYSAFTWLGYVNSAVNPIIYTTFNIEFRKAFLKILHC
Sequence of dopamine D1 receptor (P21728 whole entry): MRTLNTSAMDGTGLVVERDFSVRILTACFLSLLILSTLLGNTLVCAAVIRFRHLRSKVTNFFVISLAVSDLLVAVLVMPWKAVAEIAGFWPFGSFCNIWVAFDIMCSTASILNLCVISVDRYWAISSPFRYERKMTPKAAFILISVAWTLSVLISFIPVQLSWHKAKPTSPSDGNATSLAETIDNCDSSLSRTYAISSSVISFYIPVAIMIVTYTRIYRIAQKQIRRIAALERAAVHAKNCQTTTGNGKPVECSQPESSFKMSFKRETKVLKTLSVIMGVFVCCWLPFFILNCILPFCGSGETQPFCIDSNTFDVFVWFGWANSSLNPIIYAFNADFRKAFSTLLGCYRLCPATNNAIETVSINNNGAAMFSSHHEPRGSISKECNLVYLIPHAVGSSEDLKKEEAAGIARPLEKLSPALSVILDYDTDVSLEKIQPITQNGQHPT
Sequence of 5HT1a receptor (P08908 whole entry): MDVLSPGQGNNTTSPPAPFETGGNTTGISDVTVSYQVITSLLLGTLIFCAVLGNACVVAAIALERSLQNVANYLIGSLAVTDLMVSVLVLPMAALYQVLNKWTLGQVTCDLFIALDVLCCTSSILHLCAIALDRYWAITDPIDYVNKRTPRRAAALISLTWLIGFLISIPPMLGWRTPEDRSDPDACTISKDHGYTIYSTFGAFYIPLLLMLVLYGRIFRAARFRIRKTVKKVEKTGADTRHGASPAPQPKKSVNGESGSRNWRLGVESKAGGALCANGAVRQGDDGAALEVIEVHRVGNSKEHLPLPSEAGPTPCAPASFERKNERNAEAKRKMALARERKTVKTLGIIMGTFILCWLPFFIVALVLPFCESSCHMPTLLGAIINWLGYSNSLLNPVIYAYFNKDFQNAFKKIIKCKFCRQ
Sequence of dopamine D3 receptor (P35462 whole entry, species assumed): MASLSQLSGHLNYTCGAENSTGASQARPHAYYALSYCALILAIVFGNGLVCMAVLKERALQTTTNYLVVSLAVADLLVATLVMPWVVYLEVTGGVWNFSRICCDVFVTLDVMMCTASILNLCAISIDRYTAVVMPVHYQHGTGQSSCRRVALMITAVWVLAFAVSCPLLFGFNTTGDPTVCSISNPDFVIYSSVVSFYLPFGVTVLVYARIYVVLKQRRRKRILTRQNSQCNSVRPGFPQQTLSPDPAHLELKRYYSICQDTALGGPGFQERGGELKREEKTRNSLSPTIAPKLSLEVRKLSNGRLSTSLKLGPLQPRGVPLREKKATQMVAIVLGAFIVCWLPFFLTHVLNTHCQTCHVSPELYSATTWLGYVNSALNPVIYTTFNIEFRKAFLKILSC
T2 sequence (P21917 whole entry, species assumed): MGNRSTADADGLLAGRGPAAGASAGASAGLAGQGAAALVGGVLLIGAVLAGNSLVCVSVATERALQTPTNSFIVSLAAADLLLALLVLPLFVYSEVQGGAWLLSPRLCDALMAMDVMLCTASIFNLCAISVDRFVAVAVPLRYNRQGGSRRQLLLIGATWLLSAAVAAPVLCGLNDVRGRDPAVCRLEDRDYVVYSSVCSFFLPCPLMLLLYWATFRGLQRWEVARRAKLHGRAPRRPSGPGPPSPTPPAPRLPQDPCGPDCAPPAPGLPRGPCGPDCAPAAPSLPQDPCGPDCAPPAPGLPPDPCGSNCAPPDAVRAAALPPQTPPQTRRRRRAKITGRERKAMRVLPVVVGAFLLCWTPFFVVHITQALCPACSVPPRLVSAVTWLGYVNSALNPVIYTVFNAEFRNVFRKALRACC
Procedure for 5HT1a receptor: (§8) Assay Buffer: Standard Binding Buffer (50 mM Tris-HCl, 10 mM MgCl2, 1 mM EDTA, pH 7.4)
(§9) Membrane Fraction Source: Transiently or stably transfected cell lines (e.g., HEK293, COS, CHO, NIH3T3)
Procedure for 5HT1b receptor: as §8, §9
The 250 μl reactions are incubated at room temperature and shielded from light (to prevent photolysis of light-sensitive ligands) for 1.5 hours, then harvested by rapid filtration onto Whatman GF/B glass fiber filters pre-soaked with 0.3% polyethyleneimine using a 96-well Brandel harverster. Four rapid 500 μl washes are performed with chilled Standard Binding Buffer to reduce non-specific binding. Filters are placed in 6 ml scintillation tubes and allowed to dry overnight. […] The tubes are capped, labeled, and counted by liquid scintillation counting. […] The filter mats are dried, then scintillant is melted onto the filters and the radioactivity retained on the filters is counted in a Microbeta scintillation counter. […]
Procedure for 5HT1d receptor: as §8, §9
Procedure for 5HT2a receptor: as §8, §9
Procedure for 5HT7 receptor: as §8, §9

As to `c1cncc(OC[C@@H]2CN(CCN3CCc4ccccc43)CCO2)c1` [Compound 21s, (S)-4-(2-(Indolin-1-yl)ethyl)-2-((pyridin-3-yloxy)methyl)morpholine], the Ki on 5HT1a receptor was 10 µM; at 5HT2a receptor it was 3.54 µM; on dopamine D1 receptor it was above 10 µM; at dopamine D2 receptor [1], above 10 µM; on dopamine D3 receptor it was 8.36 µM; on dopamine D4 receptor [2], 0.182 µM. Also, the Ki on dopamine D5 receptor is above 10 µM. Further, the “Ki 5HT1d” value at 5HT1d receptor was “—”. Further, at 5HT7 receptor, the “Ki 5HT7” value is “—”. For the same compound, on hERG, the EC50 is 1.51 µM. On dopamine D2 receptor [3], the “function at the dopamine D2 receptor” value was “inverse agonists”. At dopamine D4 receptor [4], the “function at the dopamine D4 receptor” value was “inverse agonists”.
Consider `O=C(CN1CCO[C@H](COc2cccc(Cl)c2)C1)N1CCc2ccccc21` [Compound 22s, (S)-2-(2-((3-Chlorophenoxy)methyl)morpholino)-1-(indolin-1-yl)ethanone], for which the inhibition constant (Ki) amounted to 1.39 µM at 5HT1a receptor, 7.77 µM at 5HT1b receptor, 2.72 µM at 5HT2a receptor and 2.86 µM on dopamine D4 receptor [2]. At 5HT1d receptor, the “Ki 5HT1d” value is listed as “—”. Further, on 5HT7 receptor, the “Ki 5HT7” value is recorded as “—”. For the same compound, at dopamine D1 receptor, the “Ki D1” value is given as “—”. Also, on dopamine D2 receptor [1], the “Ki D2” value is listed as “—”. For the same compound, the “Ki D3” value on dopamine D3 receptor is “—”. On dopamine D5 receptor, the “Ki D5” value is “—”.
In the case of `COc1cccc(OC[C@@H]2CN(CC(=O)N3CCc4ccccc43)CCO2)c1` [Compound 24s, (S)-1-(Indolin-1-yl)-2-(2-((3-methoxyphenoxy)methyl)morpholino)ethanone], the Ki on 5HT1a receptor amounted to 0.371 µM; at 5HT1b receptor, 4.83 µM; at 5HT2a receptor it was 1.94 µM. Besides, the “Ki 5HT1d” value at 5HT1d receptor is “—”. Further, the “Ki 5HT7” value on 5HT7 receptor is given as “—”. Also, the “Ki D1” value on dopamine D1 receptor is listed as “—”. Also, the “Ki D2” value on dopamine D2 receptor [1] is given as “—”. Further, the “Ki D3” value at dopamine D3 receptor was “—”. In addition, the “Ki D5” value at dopamine D5 receptor is listed as “—”.
